Laboratory results: US10588921B2, “Drug for the treatment of cholesterol accumulation disorders” (NATIONAL UNIVERSITY CORPORATION KUMAMOTO UNIVERSITY, priority 2013, dated 2020)
Entries after “also recorded” stand apart in the source; their conditions may differ.

Assays:
[1] = system: isolated erythrocyte; conditions: in vitro; cited from earlier work
[2] = system: cultured cells; conditions: Non-Patent Document 5; cited from earlier work
[3] = system: LC3; assay: Immunoblot of LC3 expression in HLCs; assay type: cell-based, human; conditions: 1 mM HPCD, 4 days; FIG. 22
Procedure: (§1) Protein lysates were separated by SDS-PAGE and transferred to PVDF membrane. LC3-I and LCS3-II were detected by anti-LC3 antibody (Cell Signaling). The data are normalized to α-tubulin expression. The HLCs were solved in RIPA buffer and then insoluble p62 was collected as a pellet after the centrifuge of the samples.
(§2) HLCs were culture with 1 mM 2-hydroxypropylcyclodextrins (HPCDs) for 4 days, and ATP level, expression levels of LC3 and p62, and insoluble p62 granules were measured.

[4] = system: NPC model mice; assay: Survival of NPC model mice; assay type: in vivo, mouse; conditions: 4-week-old model mice injected once a week; FIG. 33
Procedure: To evaluate the effect of HPGCD treatment on NPC mice survival, 4-week-old model mice were injected with HPGCD one a week (HPGCD injection group: n=6, control (saline injection) group: n=6).

[5] = system: p62; assay: Immunoblot of insoluble p62 in HLCs; assay type: cell-based, human; conditions: 1 mM HPCD, 4 days; FIG. 23
Procedure: as §1, §2

[6] = system: NPC-derived HLCs; assay: Cell size of HLCs; assay type: cell-based, human; conditions: data not shown
Procedure: The cell sizes of albumin-positive cells was calculated by Developer Toolbox software of IN CELL ANALYZER 6000 (GE Healthcare).
(§3) The size of HLCs is decreased by the treatments with HPBCD and HPGCD (data not shown). Effects of various concentration of HPBCD and HPGCD in NPC-derived HLCs was observes. HLCs were cultured with HPBCD or HPGCD for 4 days, stained with filipin and analyzed with an IN CELL ANALYSER (GE Healthcare).

[7] = system: NPC model mice; assay: HPGCD treatment of NPC model mice (serum markers, histology, autophagy); assay type: in vivo, mouse
Procedure: Effects of HPGCD treatment on cholesterol accumulation in NPC-derived HLCs were evaluated using NPC-model mice. NPC model mice bear a spontaneous mutation of the Npc1 gene that causes a defect in lysosome to ER trafficking of cholesterol. […] The model mice show liver injury and neural functional impairment and die before 12 weeks old without proper treatment.
4-week-old NPC mice were treated with HPGCD (4000 mg/kg) once a week until 8.5 weeks of age (5 injections in total), followed by sample collection. Control was treated with saline. The experiments were conducted twice (first; n=6; second: n=4).

[8] = system: normal mice; assay: Acute toxicity test in normal mice; assay type: in vivo, mouse; conditions: 14.4 mM, 19.18 ml/g subcutaneous, 8-week-old normal mice; FIG. 34
Procedure: To confirm the excellent safety of HPGCD, acute toxicity was tested using normal mice. 14.4 mM HPBCD or HPGCD were injected in the amount of 19.18 ml/g into subcutaneous tissues of 8-week-old mice (n=10), and then survival rates were calculated.

[9] = system: NPC-derived HLCs; assay: Measurement of ATP in HLCs; assay type: cell-based, human; conditions: 1 mM HPCD, 4 days; FIG. 21
Procedure: Hepatocyte-like cells derived from the iPSC lines were cultured in DMEM medium in the absence of glucose for 24 hours and were then cultured in the DMEM medium containing 10% FBS and high glucose for 6 hours. ATP was measured by ATP measurement Kit (TOYO INK), according to the manufacturer's protocol.
as §2

[10] = system: NPC-derived HLCs; assay type: cell-based, human
Procedure: For hepatocyte-like cell (HLC) induction, the culture medium of semi-confluent human iPS cells were switched from the iPS medium to the definitive endoderm differentiation medium containing RPMI1640 supplemented with 2% B27 (Life technologies), 100 ng/m1 Activin A and 1 mM Sodium butyrate (NaB, SIGMA). The NaB concentration is changed in 0.5 mM on day 2. On day 4, the cells were harvested and re-seeded onto Matrigel-coated dishes in hepatic differentiation medium containing DMEM supplemented with 20% KSR, 1 mM glutamine, 1 mM NEAA, 0.1 mM 2-mercaptoethanol (SIGMA), 1% Dimethyl sulfoxide (DMSO, SIGMA). CXCR4 expressions were examined by FACS on day 4. On day 11, the cells were harvested and re-cultured in the hepatic maturation medium containing L15 medium (SIGMA) supplemented with 8.3% FBS, 8.3% tryptose phosphate broth (SIGMA), 10 mM hydrocortisone 21-hemisuccinate (SIGMA), 1 mM insulin (SIGMA), 2 mM glutamine, lOng/ml Hepatocyte growth factor (HGF, R & D) and 20 ng/ml Oncostatin M (OSM, R & D). On day 18, the cells were used for various experiments. For the hydroxypropyl cyclodextrin treatments, HLCs were cultured with 0.1 mM or 1 mM of the hydroxypropyl cyclodextrins for four days. For Annexin and TUNEL stainings, HLCs are cultured for four days and a week from day 18, respectively.
(§4) Alkaline phosphatase staining was performed using the Leukocyte Alkaline Phosphatase kit (SIGMA). For immunocytochemistry, cells were fixed with PBS containing 4% paraformaldehyde for 30 min at 4° C. For the molecules localized in nucleus, samples were treated with 0.2% Triton X-100 for 15 min at room temperature (RT). The cells were washed three times with PBS containing 2% FBS and then incubated overnight at 4° C. in PBS containing 2% FBS with primary antibodies. Nucleuses were stained with Propidium Iodide (PI, WAKO, Japan) and 1 mg/ml Hoechst 33258 (Invitrogen). The list of the primary and secondary antibodies is described in Table 3. For Filipin staining, samples were washed with PBS three times after the fixing and incubated with PBS containing 1.5 mg/ml glycine for 10 min at RT. The samples were then treated with PBS containing 10% FBS and 50 mg/ml Filipin (SIGMA). The data was calculated by UV absorption (360/460) and analyzed with Developer Toolbox software of IN CELL ANALYZER 6000 (GE Healthcare). The number of insoluble p62 granules were counted by IN CELL ANALYZER 6000 (GE Healthcare). To investigate glycogen accumulation, Periodic acid Schiff (PAS) staining of hepatocyte-like cells were performed by PAS staining solution (Muto Pure chemicals, Tokyo, Japan), according to the manufacturer's protocol.
The inventors therefore treated the HLCs derived from normal and NPC-iPS cell lines with a series of 2-hydroxypropyl-cyclodextrins with different cavity sizes, and observed effect of a series of hydroxypropyl-cyclodextrins. HLCs were cultured with 1 mM of the indicated hydroxypropyl-cyclodextrin for 4 days, stained with filipin and analyzed with an IN CELL ANALYSER (GE Healthcare) (FIG. 18).
as §3

[11] = system: p62; assay: Count of insoluble p62 granules in HLCs (IN CELL ANALYZER); assay type: cell-based, human; conditions: 1 mM HPCD, 4 days; FIG. 24
Procedure: as §4, with “To investigate glycogen accumulation, Periodic acid Schiff (PAS) staining of hepatocyte-like cells were performed by PAS staining solution (Muto Pure chemicals, Tokyo, Japan), according to the manufacturer's protocol.” left out
as §2

[12] = 4000 mg/kg once a week from 4 to 8.5 weeks of age, FIG. 30

Substance: 2-hydroxypropyl-γ-cyclodextrin [HPGCD]
- hemolytic activity (order) [1]: HPBCD>HPACD>HPGCD
- cholesterol dissolution activity [2]: a several tenth part or less, compared with that of HPBCD
- expression level of LC3 [3]: recovered to normal levels
- NPC mouse survival [4]: significantly prolonged
- amount of insoluble p62 [5]: reduced the amount of insoluble p62
- size of HLCs [6]: decreased
- ALT (alanine aminotransferase), serum marker for liver injury [7, 12]: markedly and significantly reduced
- AST (aspartate aminotransferase), serum marker for liver injury [7, 12]: markedly and significantly reduced
- histological analysis of livers ([7]; 4000 mg/kg once a week, FIG. 31): marked morphological improvement
- deletion of Purkinje cells in the cerebellum ([7]; 4000 mg/kg once a week, FIG. 32): rescued; also recorded: restored
- abnormal autophagy in NPC mice ([7]; data not shown): restored
- expression level of LC3 in livers and brains ([7]; data not shown): restored to the normal level
- expression level of insoluble p62 in livers and brains ([7]; data not shown): restored to the normal level
- survival after injection (acute toxicity) [8]: no mice dies
- ATP level [9]: recovered
- activity on hepatocyte-like cells differentiation-induced from NPC patient-derived iPS cells [10]: equal to or more than that of HPBCD
- cholesterol accumulated in hepatocyte-like cells derived from NPC [10]: removed cholesterol accumulated in hepatocyte-like cells derived from NPC
- function of the hepatocyte-like cells [10]: recovered the function of the hepatocyte-like cells
- cholesterol accumulation in NPC-HLCs (filipin staining) ([10]; 1 mM hydroxypropyl-cyclodextrin, 4 days, FIG. 18): reduced the cholesterol accumulation in NPC-HLCs to the same extent as that observed for HPBCD
- cholesterol accumulation in NPC-derived HLCs (filipin staining) ([10]; low concentration 100 μM, 4 days, FIG. 19): ineffective for reducing cholesterol accumulation
- proportion of HLCs carrying more than 40 granules of insoluble p62 aggregation [11]: greatly reduced
